Assays:
HH cell line = test: Combination with doxorubicin in HH; format: cell-based; settings: administered simultaneously
[1] = test system: RAD51 protein in NHL cell lines; test: RAD51 protein downregulation in Non-Hodgkins lymphoma cell lines (Western blot); format: cell-based; settings: 24 hours, most of the cell lines tested
Protocol: (§1) Western Blot Analysis: Cell lines [al NHL except for Jurkat (T-cll leukemia) and K562 (CML)] were treated with PCI-24781 for the designated times, lysed and total protein was quantitated and western blot analysis performed. RAD51 and Actin antibodies were from Santa Cruz.

HH lymphoma line = test: Apoptosis by Annexin V-FITC flow cytometry in HH line; format: cell-based
Protocol: (§2) 3-((dimethylamino)methyl)-N-(2-(4-(hydroxycarbamoyl)phenoxy)ethyl)benzofuran-2-carboxamide induced apoptosis in lymphoma cell lines after a 48 hour incubation measured by Annexin V-FITC flow cytometry. […] Thus, both the initial level of RAD51 in tumors as well as the fold decrease after treatment are predictive for 3-((dimethylamino)methyl)-N-(2-(4-(hydroxycarbamoyl)phenoxy)ethyl)benzofuran-2-carboxamide activity, and in some embodiments is used as biomarkers in clinical studies to identify patients most likely to respond to 3-((dimethylamino)methyl)-N-(2-(4-(hydroxycarbamoyl)phenoxy)ethyl)benzofuran-2-carboxamide.

[2] = test system: RAD51 protein in HH cutaneous T-cell lymphoma cell line; test: RAD51 protein downregulation in HH cell line (Western blot); format: cell-based; settings: 24 hours
Protocol: as §1

lymphoma cell lines = test: Apoptosis by Annexin V-FITC flow cytometry in lymphoma cell lines; format: cell-based
Protocol: as §2

RAD51 in HCT116 cells = test: RAD51 protein levels by Western blotting in HCT116 cells; format: cell-based; settings: by 24 hours, HCT-116 in vitro
Protocol: (§3) To explore this further, we analyzed levels of RAD51, an essential protein in HR, by Western blotting and immunofluorescence. Following exposure of HCT116 cells to doses of the test compound ranging from 0.2 μM to 2.0 μM, RAD51 levels decreased to 20% of control by 24 hr, but remained unchanged at 6 hr. […] Finally, RAD51 nuclear foci were visualized following γ-irradiation.
For determination of protein levels by Western blot, cellular extracts are prepared as follows. Cells are harvested by scraping; washed with PBS and pelleted by centrifugation. Cell pellets (from 100 mm plate) are resuspended with 200 μl B3 buffer containing protease inhibitors shaken at 4° C. for 10 min and centrifuge at 12,000 rpm at 4° C. in Tomy microcentrifuge for 10 minutes. To make 1 liter of B3 buffer, add 1 ml of NP-40, 50 ml of 5 M NaCl, 10 ml of […], 50 ml of 1 M Tris HCl at pH7.5 to 889 ml dH2O. The day of cell harvest protease inhibitors are added to B3 buffer (aprotinin, leupeptin and pepstatin to a final concentration of 2 μg/ml, 5 μg/ml and 0.7 μg/ml, respectively). […] Sample protein concentrations are determined by the Bradford Assay (BioRad; Richmond, Calif.). […]
Western Blot Analysis: Cell lines [al NHL except for Jurkat (T-cll leukemia) and K562 (CML)] were treated with PCI-24781 for the designated times, lysed and total protein was quantitated and western blot analysis performed. […]

[3] = test system: RAD51 transcript in HCT116 cells; test: RAD51 transcript levels by real time PCR in HCT116 cells; format: cell-based; settings: by 24 hours, HCT-116 in vitro
[4] = test system: DHL-4 Non-Hodgkins cell line; test: Combination with doxorubicin in DHL-4; format: cell-based; settings: administered simultaneously
[5] = test system: RAD51 mRNA in lymphoma cell lines; test: RAD51 mRNA by Taqman RT-PCR in lymphoma cell lines; format: cell-based
Protocol: (§4) Tagman Gene Expression Assays: 10 lymphoma cell lines were treated with PCI-24781 for various times and total RNA was isolated and quantitated. Taqman assays were set up using the Taqman master mix (Applied Biosystems) and 50 ng of total RNA as template. Gene expression assay probe sets for RAD51 was purchased from Applied Biosystems.
(§5) Cell lines were treated with 3-((dimethylamino)methyl)-N-(2-(4-(hydroxycarbamoyl)phenoxy)ethyl)benzofuran-2-carboxamide for 24 hours, and RAD51 mRNA was analyzed by Taqman RT-PCR.

[6] = test system: RAD51 in HCT-116 mouse xenografts; test: RAD51 levels in HCT-116 xenograft tumors; settings: HCT-116, in vivo (not shown)
Protocol: Also shown are RAD51 levels and actin levels after extraction of tumor from HCT-116 mouse xenografts with different dosing regimens. 1× animals received a single oral dose 4 hours before the end of the study; 2× animals received one oral dose 28 hours before the end of the study and received a second dose 6 hours later; 3× animals were dosed as in the 2× but also received a third dose the following morning, 24 hours after the first dose was administered and 4 hours before the end of the study. Fold changes in protein levels were quantitated by using Odyssey software and were normalized to the levels of the actin loading control.
3-((dimethylamino)methyl)-N-(2-(4-(hydroxycarbamoyl)phenoxy)ethyl)benzofuran-2-carboxamide pretreatment for 24 hours also lead to complete loss of RAD51 foci in the nuclei of irradiated HCT-116 cells (not shown; see Adimoolam et al. 2007, PNAS epub Nov. 27 the experiment, which is herein incorporated by reference).

[7] = test system: RAD51 foci in irradiated HCT-116 cells; test: RAD51 nuclear foci following γ-irradiation; format: cell-based; settings: pretreatment for 24 hours
Protocol: as §3
Monolayer cultures of different cells are grown in Dulbecco's MEM medium supplemented with 10% fetal bovine serum and antibiotics. The cells are detached from culture flasks by gentle trypsinization, pelleted and resuspended in phosphate buffered saline (PBS; 136 mM NaCl, 2 mM KCG, 10.6 mM NaHPO4, 1.5 mM KH2PO4 [pH 7.3]) prewarmed at 37° C. (Haaf, et al., 1995, Proc. Natl. Acad. Sci. USA 92: 2298-2302). Cultured cells are washed and resuspended in PBS. The density of somatic cells is adjusted to about 10^5 cells per ml in PBS. Aliquots (0.5 ml) of the cell suspension are centrifuged onto clean glass slides at 800 rpm for 4 min, in a Cytospin (Shandon, Pittsburg). Immediately after cytocentrifugation, the slides are fixed in −20° C. methanol for 30 min and then immersed in ice-cold acetone for a few seconds to permealize the cells for antibody staining. […]

[8] = test system: RAD51 mRNA in HH cell line; test: RAD51 mRNA by Taqman RT-PCR in HH cell line; format: cell-based; settings: 24 hours
Protocol: as §4, §5

[9] = test system: DLCL2 Non-Hodgkins cell line; test: Combination with doxorubicin in DLCL2; format: cell-based; settings: administered simultaneously

CN(C)Cc1c(C(=O)NCCOc2ccc(C(=O)NO)cc2)oc2ccccc12 [3-((dimethylamino)methyl)-N-(2-(4-(hydroxycarbamoyl)phenoxy)ethyl)benzofuran-2-carboxamide] was tested. Which “combination effect with doxorubicin” value (HH cell line) did it give?
Its value is “less than additive”.

And the RAD51 protein levels [1]?
Its RAD51 protein levels is “downregulated RAD51 protein levels in a dose-dependent manner”.

What about the RAD51 protein levels ([1]; listed as 3-((dimethylamino)methyl) -N-(2-(4-(hydroxycarbamoyl)phenoxy)ethyl)benzofuran-2-) of the same compound?
Its RAD51 protein levels is “downregulated RAD51 protein levels”.

And the apoptosis (HH lymphoma line)?
Its apoptosis is “least % apoptosis”.

And the “effect on RAD51 protein levels” value [2]?
Its value is “least effect”.

And the apoptotic cell death (lymphoma cell lines; 48 hour incubation, all the lines except HH)?
Its apoptotic cell death is “dose-dependent increase in apoptotic cell death”.

What about the apoptosis (lymphoma cell lines; at 24 hrs, all the lines) of the same compound?
Its apoptosis is “lower levels of apoptosis”.

And the “apoptosis following drug treatment” value (lymphoma cell lines; five most sensitive cell lines)?
The value was greater than 70%.

What about the RAD51 protein levels (RAD51 in HCT116 cells) of the same compound?
Its RAD51 protein levels is “downregulating RAD51”.

What about the “RAD51 mRNA levels” value [3] of the same compound?
Its value is “downregulating RAD51”.

And the “combination effect with doxorubicin” value [4]?
Its value is “synergistic effects”.

And the “downregulation of RAD51 mRNA expression” value ([5]; 24 hours, most of the cell lines)?
Its value is “more than 2 fold”.

And the “decrease in RAD51 mRNA” value ([5]; the five cell lines with >70% apoptosis)?
The value was greater than 4 fold.

And the “RAD51 levels in vivo” value [6]?
Its value is “downregulating RAD51”.

And the “RAD51 foci in the nuclei” value [7]?
Its value is “complete loss”.

What about the “RAD51 mRNA change” value [8] of the same compound?
The value was “no decrease”.

And the “combination effect with doxorubicin” value [9]?
The value was “synergistic effects”.
